Here are results for 1 compound from patent EP4752149A1, “OXYGEN-CONTAINING FUSED TRICYCLIC DERIVATIVE, AND PREPARATION METHOD THEREFOR AND USE THEREOF” (Tuojie Biotech (Shanghai) Co., Ltd., priority 2023, dated 2025).

In one experiment the target is T1, CDK2/CycE1 (Homo sapiens, UniProt P24941).
T1 construct: purchased Carna 04-165
Put plainly: Activity against cyclin-dependent kinase CDK2/CycE1 (Caliper EZ Reader mobility shift). As to conditions: 1 h at room temperature; highest concentration 1 µM. The format is biochemical. Here is the method: The test compounds (the highest concentration was 1 µM) were added using Echo 650 and serially diluted 3-fold to obtain a total of 9 concentration points. The assay plate was sealed and centrifuged at 1000 g for 1 min. 2.5× enzymes were prepared in a 1× kinase buffer (50 mM HEPES, pH 7.5, 0.0015% Brij-35, […]), and the 2.5× enzymes (10 µL) were added to the 384-well assay plate. The plate was centrifuged at 1000 g for 30 s and left to stand at room temperature for 10 min. 2.5× substrate and ATP mixtures were prepared in the 1× kinase buffer, and the 2.5× substrate and ATP mixtures (10 µL) were added to start reactions. The assay plate was centrifuged at 1000 g for 30 s, sealed, and incubated at room temperature for 1 h. 25 µL of a stop solution reagent (100 mM HEPES, pH 7.5, 0.015% Brij-35, 0.2% Coating Reagent #3, 50 mM EDTA) was added.
Conversion rate data were read on a CaliperEZ Reader. The conversion rate data were copied from the CaliperEZ Reader. The conversion rates were converted to inhibition rate data. Inhibition% = (max−conversion)/(max−min) × 100, [formula] where "min" is the reading of a control sample well to which no enzyme was added for reaction; "max" is the reading of a control well to which DMSO was added.
IC50 values were obtained by fitting using XLFit excel add-in version 5.4.0.8. Y = Bottom + (Top−Bottom)/(1+((IC50/X))^(∧)HillSlope). [formula] Table 6. […]

The subject of experiment [1] is Human breast cancer cells (MDA-MB-231). Kind of experiment: Inhibitory activity against human breast cancer cells (MDA-MB-231), CTG cell viability. The class given is cell-based. The following applies: Homo sapiens, 168 h, 7 days with compound. The procedure:
(§1) Human breast cancer cells (MDA-MB-231) were cultured using a DMEM culture medium containing 10% FBS in a cell incubator (37 °C, 5% CO2). On day one, the cells were plated in a 384-well plate at a cell concentration of 600 cells/well and cultured overnight in an incubator. On day two, the cells were treated with compounds. The highest compound concentration was 10 µM and was diluted 3-fold to obtain 9 concentrations, and the final concentration of DMSO was 0.2%. After the cells were cultured in the incubator for another 7 days, the cell viability was tested using a CTG Cell Viability Detection Reagent; the testing method was consistent with the method provided by the kit. Data were processed using XLFit, and IC50 was calculated. [formula] X: the logarithm of the compound concentration; Y: % inhibition. Table 8. The IC50 (nM) of a compound of the present disclosure against MDA-MB-231

In experiment [2] the test system is Human non-small cell lung cancer cells (A549). Kind of experiment: Inhibitory activity against human non-small cell lung cancer cells (A549), CTG cell viability. The class given is cell-based. The following applies: Homo sapiens, 120 h, 5 days with compound. The procedure: (§2) Human non-small cell lung cancer cells (A549) were cultured using an F12K culture medium containing 10% FBS in a cell incubator (37 °C, 5% CO2). On day one, the cells were plated in a 384-well plate at a cell concentration of 300 cells/well and cultured overnight in an incubator. On day two, the cells were treated with compounds. The highest compound concentration was 10 µM and was diluted 3-fold to obtain 9 concentrations, and the final concentration of DMSO was 0.2%. After the cells were cultured in the incubator for another 5 days, the cell viability was tested using a CTG Cell Viability Detection Reagent; the testing method was consistent with the method provided by the kit. Data were processed using XLFit, and IC50 was calculated. [formula] X: the logarithm of the compound concentration; Y: % inhibition. Table 10. The IC50 (nM) of a compound of the present disclosure against A549

The test system of experiment [3] is Human prostate cancer cells (22RV1). Put plainly: Inhibitory activity against human prostate cancer cells (22RV1), CTG cell viability. The class given is cell-based. The following applies: Homo sapiens, 120 h, 5 days with compound. Here is the method: as §2, with “prostate” for “non-small cell lung”, “(22RV1)” for “(A549)”, “RPMI 1640” for “F12K”, “500” for “300”, “12.” for “10.”, “22RV1” for “A549”

Experiment [4] relates to Human breast cancer cells (SUM-149PT). Kind of experiment: Inhibitory activity against human breast cancer cells (SUM-149PT), CTG cell viability. The following applies: Homo sapiens, SUM149PT, 120 h, 5 days with compound. The class given is cell-based. Here is the method:
as §1, with “cells (SUM-149PT)” for “cells (MDA-MB-231)”, “of 800” for “of 600”, “another 5” for “another 7”, “Table 14.” for “Table 8.”, “against SUM-149PT” for “against MDA-MB-231”

For another experiment, the system named is MCF-7/Palbo-R. Kind of experiment: Inhibitory activity against CDK4/6 inhibitor-resistant human breast cancer cells (MCF-7 palbociclib-resistant cell line), cell viability. The format is cell-based. The following applies: Homo sapiens, MCF7, 120 h, 5 days with compound, CellTiter-Glo cell viability. The procedure: MCF-7/Palbo-R cell source: MCF7 cells (Nanjing Cobioer Biosciences Co., Ltd.) were treated with 1 µM palbociclib for a long time, and drug resistance was induced.
The palbociclib-resistant breast cancer cell line MCF-7/Palbo-R was cultured using a DMEM culture medium containing 10% FBS in a cell incubator (37 °C, 5% CO2). On day one, the cells were plated in a 384-well plate at a cell concentration of 800 cells/well and cultured overnight in an incubator. On day two, the cells were treated with compounds. The highest compound concentration was 10 µM and was diluted 3-fold to obtain 9 concentrations, and the final concentration of DMSO was 0.2%. After the cells were cultured in the incubator for another 5 days, the cell viability was tested using a CellTiter-Glo luminescent cell viability assay kit; the testing method was consistent with the method provided by the kit. Data were processed using XLfit, and IC50 was calculated.
The inhibition rates (IR) of the test compounds were calculated using the following formula: IR (%) = (1 - (RLU compound - RLU blank control) / (RLU vehicle control-RLU blank control)) × 100%. Table 16. The IC50 (nM) of a compound of the present disclosure against MCF-7/Palbo-R
Background: ATP-based viability assays read luminescence as a measure of living cells.

The IC50 is the concentration at which inhibition is half-maximal. On to `C[C@H]1COc2c(-c3nc(Nc4ccc(N5CCOCC5=O)cc4F)ncc3Cl)cc(F)c3nc(C(C)(C)O)n1c23` [Example 1, (S)-4-(4-((5-Chloro-4-(8-fluoro-2-(2-hydroxypropan-2-yl)-3-methyl-3,4-dihydro-5-oxa-1,2a-diazaacenaphthylen-6-yl)pyrimidin-2-yl)amino)-3-fluorophenyl)morpholin-3-one], for which the IC50 on CDK2/CycE1 was 9.8 nM; in experiment [1], 117 nM; in experiment [2], 236 nM; in experiment [3], 80.3 nM; in experiment [4], 256 nM; with MCF-7/Palbo-R, 180 nM.
